Assay results taken from patent US10940139B2, “Compounds that interact with the Ras superfamily for the treatment of cancers, inflammatory diseases, rasopathies, and fibrotic disease” (Shy Therapeutics LLC, priority 2017, dated 2021).

These compounds were tested against KRas G12D/Q61H double mutant (Homo sapiens (Human), UniProt P01116, G12D/Q61H) (assay: Ras GTP binding domain inhibition assay (labeled GTP)). Conditions: 20 μM.
Summary of the method: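 His-tagged KRas protein (3-10 μg/ml) was captured overnight at 4° C on nickel-coated wells in 50 mM Tris pH 7.5, 1 mM MgCl2, 1 mM DTT. Bound labeled GTP was read by fluorescence after washing.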

KRas G12D/Q61H double mutant, sequence (P01116-2 other isoform, or with tags, fused parts or gaps G12D/Q61H): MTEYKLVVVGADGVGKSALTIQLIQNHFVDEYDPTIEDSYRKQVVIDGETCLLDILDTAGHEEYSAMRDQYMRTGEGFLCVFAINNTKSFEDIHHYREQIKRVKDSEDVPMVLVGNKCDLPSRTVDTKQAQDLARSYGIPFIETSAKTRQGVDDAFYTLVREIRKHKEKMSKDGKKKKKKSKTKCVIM

| SMILES | KRas G12D Q61H % Inh. |
| --- | --- |
| O=C(COc1ccc(F)cc1F)Nc1nnc(-c2ccccn2)[nH]1 [drawing 2459] | C (C = 51-75% inhibition) |

Same assay, conditions: 20 μM; read-out: KRas G12D Q61H % Inh.

| SMILES | inhibition at 20 µM |
| --- | --- |
| O=C(CCCc1nc2ccccc2s1)Nc1nnc(-c2ccccn2)[nH]1 | 51 to 75% |
| CC(C)N(Cc1nnc(-c2ccc(Cl)cc2Cl)o1)c1ccc(F)cc1 | 25 to 50% |
| CS(=O)(=O)c1cccc(C(=O)Nc2nnc(-c3ccccn3)[nH]2)c1 | 51 to 75% |
| CC(C)NC(=O)Nc1cccc(C(=O)Nc2nnc(-c3ccccn3)[nH]2)c1 [drawing 2451] | 51 to 75% |
| COc1cccc(CCC(=O)Nc2nnc(-c3ccccn3)[nH]2)c1 [drawing 2453] | 51 to 75% |
| O=C(Nc1nnc(-c2ccccn2)[nH]1)c1ccc2c(c1)CCO2 [drawing 2455] | 51 to 75% |
| Cn1cc(C2CC2C(=O)Nc2nnc(-c3ccccn3)[nH]2)cn1 (centres unmarked) [drawing 2457] | 51 to 75% |
| COc1cccc(CC(=O)Nc2nnc(-c3ccccn3)[nH]2)c1 [drawing 2460] | 51 to 75% |
| Cc1ccc(C(=O)Nc2nnc(-c3ccccn3)[nH]2)cc1S(C)(=O)=O [drawing 2461] | 51 to 75% |
| O=C(Nc1nnc(-c2ccccn2)[nH]1)c1ccn(-c2cccc(F)c2)n1 [drawing 2468] | 51 to 75% |
| COc1ccc2c(ccn2CC(=O)Nc2nnc(-c3ccccn3)[nH]2)c1 [drawing 2470] | 51 to 75% |
| Cn1cc(-c2nc(C(=O)Nc3nnc(-c4ccccn4)[nH]3)cs2)cn1 [drawing 2474] | 76 to 100% |
| Cn1ccc(C(=O)Nc2nnc(-c3ccccn3)[nH]2)cc1=O [drawing 2476] | 25 to 50% |
| CC(OCC(F)(F)F)C(=O)Nc1nnc(-c2ccccn2)[nH]1 (centres unmarked) [drawing 2479] | 51 to 75% |
| CC(C)c1noc(CCCC(=O)Nc2nnc(-c3ccccn3)[nH]2)n1 [drawing 2483] | 51 to 75% |
| O=C(CC1C=CCC1)Nc1nnc(-c2ccccn2)[nH]1 (centres unmarked) [drawing 2484] | 51 to 75% |
| CC(C)c1noc(CCC(=O)Nc2nnc(-c3ccccn3)[nH]2)n1 [drawing 2486] | 51 to 75% |
| O=C(Cc1cccs1)Nc1nnc(-c2ccccn2)[nH]1 [drawing 2487] | 51 to 75% |
| O=C(Nc1nnc(-c2ccccn2)[nH]1)C1COc2ccccc2C1 (centres unmarked) [drawing 2490] | 51 to 75% |
| O=C(Nc1nnc(-c2ccccn2)[nH]1)c1ccc(Oc2ccccc2)nc1 [drawing 2491] | 51 to 75% |
| Cc1noc(C)c1CC(=O)Nc1nnc(-c2ccccn2)[nH]1 [drawing 2492] | 51 to 75% |
| CC(C)(C)c1noc(CCC(=O)Nc2nnc(-c3ccccn3)[nH]2)n1 [drawing 2493] | 51 to 75% |

| SMILES | inhibition at 20 µM |
| --- | --- |
| O=C(Nc1nnc(-c2ccccn2)[nH]1)C1CC(=O)N(CCc2ccccc2)C1 (centres unmarked) [drawing 2494] | 51 to 75% |
| O=C(Cc1ccccc1)NCCC(=O)Nc1nnc(-c2ccccn2)[nH]1 [drawing 2495] | 51 to 75% |
| CN(CC(=O)Nc1nnc(-c2ccccn2)[nH]1)S(C)(=O)=O [drawing 2496] | 51 to 75% |
| O=C(Nc1nnc(-c2ccccn2)[nH]1)c1cccc(NC(=O)C2CCCO2)c1 (centres unmarked) [drawing 2498] | 51 to 75% |
| O=C(CC1CCCC1)NCC(=O)Nc1nnc(-c2ccccn2)[nH]1 [drawing 2500] | 51 to 75% |
| O=C(Nc1nnc(-c2ccccn2)[nH]1)c1ncoc1-c1cccs1 [drawing 2501] | 51 to 75% |
| O=C(CCNC(=O)c1ccco1)Nc1nnc(-c2ccccn2)[nH]1 [drawing 2503] | 51 to 75% |
| CCn1nnc2cc(C(=O)Nc3nnc(-c4ccccn4)[nH]3)ccc21 [drawing 2507] | 51 to 75% |
| CC(Oc1ccccc1C#N)C(=O)Nc1nnc(-c2ccccn2)[nH]1 (centres unmarked) [drawing 2510] | 51 to 75% |
| CC(Oc1ccc(C(=O)Nc2nnc(-c3ccccn3)[nH]2)cn1)c1ccccc1 (centres unmarked) [drawing 2512] | 51 to 75% |
| O=C(Nc1nnc(-c2ccccn2)[nH]1)C1CCCN(c2ncccn2)C1 (centres unmarked) [drawing 2514] | 51 to 75% |
| O=C(Cc1ccc(F)cc1)Nc1nnc(-c2ccccn2)[nH]1 [drawing 2515] | 51 to 75% |
| CC(OCc1ccccc1)C(=O)Nc1nnc(-c2ccccn2)[nH]1 (centres unmarked) [drawing 2516] | 51 to 75% |
| O=C(Nc1nnc(-c2ccccn2)[nH]1)C1CCCC(C(F)(F)F)C1 (centres unmarked) [drawing 2518] | 51 to 75% |
| O=C(COCc1ccccc1Cl)Nc1nnc(-c2ccccn2)[nH]1 [drawing 2519] | 51 to 75% |
| O=C(Nc1nnc(-c2ccccn2)[nH]1)C1CC1c1ccc(F)cc1 (centres unmarked) [drawing 2520] | 51 to 75% |
| Cc1cccc(C(=O)Nc2nnc(-c3ccccn3)[nH]2)n1 [drawing 2524] | 51 to 75% |
| O=C(COc1ccc2c(c1)CCC2)Nc1nnc(-c2ccccn2)[nH]1 [drawing 2526] | 51 to 75% |
| O=C(Nc1nnc(-c2ccccn2)[nH]1)c1ccc(NC(=O)c2ccccn2)cc1 [drawing 2528] | 51 to 75% |
| COC(=O)c1cncc(C(=O)Nc2nnc(-c3ccccn3)[nH]2)c1 [drawing 2529] | 51 to 75% |
| Cc1nc(-c2ccccn2)sc1C(=O)Nc1nnc(-c2ccccn2)[nH]1 [drawing 2532] | 51 to 75% |
| COc1ccccc1C1CC1C(=O)Nc1nnc(-c2ccccn2)[nH]1 (centres unmarked) [drawing 2535] | 51 to 75% |

Second part, the compound after the results:

| inhibition at 20 µM | SMILES |
| --- | --- |
| 76 to 100% | O=C(Nc1nnc(-c2ccccn2)[nH]1)c1csc(-c2ccoc2)n1 |
| 1 to 25% | O=C(c1ccc2c(c1)CCO2)N1CCCc2c(O)nc(-c3ccccn3)nc21 |
| 51 to 75% | O=C(CCc1cnn(-c2ccccc2)c1)Nc1nnc(-c2ccccn2)[nH]1 [drawing 2450] |
| 51 to 75% | O=C(Cc1ccc(-n2cnnn2)cc1)Nc1nnc(-c2ccccn2)[nH]1 [drawing 2452] |
| 51 to 75% | COc1ccc(CCC(=O)Nc2nnc(-c3ccccn3)[nH]2)cc1F [drawing 2454] |
| 51 to 75% | O=C(Cc1c[nH]c2ccccc12)Nc1nnc(-c2ccccn2)[nH]1 [drawing 2456] |
| 51 to 75% | O=C(COc1ccc(F)cc1F)Nc1nnc(-c2ccccn2)[nH]1 [drawing 2458] |
| 51 to 75% | O=C(CCn1ccc2ccccc21)Nc1nnc(-c2ccccn2)[nH]1 [drawing 2462] |
| 51 to 75% | Cc1oc(-c2ccccc2)nc1C(=O)Nc1nnc(-c2ccccn2)[nH]1 [drawing 2463] |
| 51 to 75% | Cc1c(C(=O)Nc2nnc(-c3ccccn3)[nH]2)oc2ccccc12 [drawing 2465] |
| 51 to 75% | CC(Oc1ccccc1Cl)C(=O)Nc1nnc(-c2ccccn2)[nH]1 (centres unmarked) [drawing 2467] |
| 51 to 75% | O=C(CCc1c[nH]c2ccccc12)Nc1nnc(-c2ccccn2)[nH]1 [drawing 2471] |
| 51 to 75% | Cc1ccc(CC(=O)Nc2nnc(-c3ccccn3)[nH]2)cc1 [drawing 2473] |
| 51 to 75% | Cc1c(C(=O)Nc2nnc(-c3ccccn3)[nH]2)oc2c1C(=O)CCC2 [drawing 2477] |
| 51 to 75% | C[C@H](NS(=O)(=O)c1ccccc1F)C(=O)Nc1nnc(-c2ccccn2)[nH]1 [drawing 2478] |
| 51 to 75% | CC(C)c1nc(CC(=O)Nc2nnc(-c3ccccn3)[nH]2)cs1 [drawing 2480] |
| 51 to 75% | O=C(Nc1nnc(-c2ccccn2)[nH]1)c1ccc(CN2C(=O)CCC2=O)cc1 [drawing 2481] |
| 51 to 75% | COc1ccc(CC(=O)Nc2nnc(-c3ccccn3)[nH]2)cc1 [drawing 2485] |
| 51 to 75% | N#Cc1ccccc1OCC(=O)Nc1nnc(-c2ccccn2)[nH]1 [drawing 2488] |
| 51 to 75% | O=C(Nc1nnc(-c2ccccn2)[nH]1)C1CCCC1 [drawing 2489] |

| inhibition at 20 µM | SMILES |
| --- | --- |
| 51 to 75% | O=C(Cc1cccc(F)c1)Nc1nnc(-c2ccccn2)[nH]1 [drawing 2497] |
| 51 to 75% | O=C(Cn1c(=O)oc2ccccc21)Nc1nnc(-c2ccccn2)[nH]1 [drawing 2502] |
| 51 to 75% | CC(C)COC(C)C(=O)Nc1nnc(-c2ccccn2)[nH]1 (centres unmarked) [drawing 2505] |
| 51 to 75% | Cc1ccc(CC(=O)Nc2nnc(-c3ccccn3)[nH]2)cn1 [drawing 2506] |
| 51 to 75% | O=C(Nc1nnc(-c2ccccn2)[nH]1)c1nc(N2CCOCC2)ncc1Cl [drawing 2508] |
| 51 to 75% | O=C(Nc1nnc(-c2ccccn2)[nH]1)C1Cc2ccccc2O1 (centres unmarked) [drawing 2509] |
| 51 to 75% | CC(Oc1cccc(C#N)c1)C(=O)Nc1nnc(-c2ccccn2)[nH]1 (centres unmarked) [drawing 2511] |
| 51 to 75% | CC(COCc1ccccc1)C(=O)Nc1nnc(-c2ccccn2)[nH]1 (centres unmarked) [drawing 2517] |
| 51 to 75% | Cc1ccc(CC(=O)Nc2nnc(-c3ccccn3)[nH]2)s1 [drawing 2521] |
| 51 to 75% | O=C(Nc1nnc(-c2ccccn2)[nH]1)c1ccc(OCC2CC2)cc1 [drawing 2522] |
| 51 to 75% | N#Cc1cccc(OCC(=O)Nc2nnc(-c3ccccn3)[nH]2)c1 [drawing 2523] |
| 51 to 75% | CC(Oc1ccc(C#N)cc1)C(=O)Nc1nnc(-c2ccccn2)[nH]1 (centres unmarked) [drawing 2525] |
| 51 to 75% | O=C(Nc1nnc(-c2ccccn2)[nH]1)C1CCCN(c2cnccn2)C1 (centres unmarked) [drawing 2527] |
| 51 to 75% | CCc1ccccc1OCC(=O)Nc1nnc(-c2ccccn2)[nH]1 [drawing 2530] |
| 51 to 75% | CC1CCc2sc(C(=O)Nc3nnc(-c4ccccn4)[nH]3)cc2C1 (centres unmarked) [drawing 2531] |
| 51 to 75% | Cc1nc2nc(C(F)(F)F)nn2c(C)c1CC(=O)Nc1nnc(-c2ccccn2)[nH]1 [drawing 2533] |
| 51 to 75% | COc1cccc(COCC(=O)Nc2nnc(-c3ccccn3)[nH]2)c1 [drawing 2534] |
| 51 to 75% | O=C(Cn1c(=O)[nH]c2ccccc21)Nc1nnc(-c2ccccn2)[nH]1 [drawing 2536] |
| 51 to 75% | CN(CC(=O)Nc1nnc(-c2ccccn2)[nH]1)Cc1ccccc1 [drawing 2537] |

Same assay, conditions: read-out: KRas G12D Q61H IC50

| SMILES | IC50 |
| --- | --- |
| O=C(CCc1c[nH]c2ccccc12)Nc1nnc(-c2ccccn2)[nH]1 [drawing 2471] | < 5 µM |
| CC(Oc1cccc(C#N)c1)C(=O)Nc1nnc(-c2ccccn2)[nH]1 (centres unmarked) [drawing 2511] | < 5 µM |
